Laboratory results published in the supplement of paper PMC10307832.

Tests used:
Experiment in all cases: relative viability (nuclei count vs DMSO), 5 days (fraction); higher = more cells survive
Metformin + Pemetrexed = compound: CN(C)C(=N)NC(=N)N [Metformin] + Nc1nc2[nH]cc(CCc3ccc(C(=O)N[C@@H](CCC(=O)O)C(=O)O)cc3)c2c(=O)[nH]1 [Pemetrexed] (partner 0.2 µM)
How it was run: (§1)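 Dosing by pin tool came one day after lung cancer cell lines were seeded in 1536-well plates, using either one drug or a fixed anchor-drug dose plus five library-drug doses (not always all listed) in √10 steps. After 5 days, nuclei were counted on 4× images. Relative viability is treated-well nuclei count divided by vehicle-well nuclei count, and values are medians of duplicate plates.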

Apatinib + Vorinostat = compound: N#CC1(c2ccc(NC(=O)c3cccnc3NCc3ccncc3)cc2)CCCC1 [Apatinib] + O=C(CCCCCCC(=O)Nc1ccccc1)NO [Vorinostat] (partner 1 µM)
How it was run: as §1

Apatinib + Pictilisib = compound: N#CC1(c2ccc(NC(=O)c3cccnc3NCc3ccncc3)cc2)CCCC1 [Apatinib] + CS(=O)(=O)N1CCN(Cc2cc3nc(-c4cccc5[nH]ncc45)nc(N4CCOCC4)c3s2)CC1 [Pictilisib] (partner 1 µM)
How it was run: as §1

Metformin + Olaparib = compound: CN(C)C(=N)NC(=N)N [Metformin] + O=C(c1cc(Cc2n[nH]c(=O)c3ccccc23)ccc1F)N1CCN(C(=O)C2CC2)CC1 [Olaparib] (partner 8 µM)
How it was run: as §1

| Cell Line | relative viability (Metformin + Pemetrexed; first compound 10 µM) | relative viability (Metformin + Pemetrexed; first compound 31.62 µM) | relative viability (Metformin + Pemetrexed; first compound 100 µM) | relative viability (Metformin + Pemetrexed; first compound 316.23 µM) | relative viability (Metformin + Pemetrexed; first compound 1000 µM) | relative viability (Apatinib + Vorinostat; first compound 0.08 µM) | relative viability (Apatinib + Vorinostat; first compound 0.253 µM) | relative viability (Apatinib + Vorinostat; first compound 0.8 µM) | relative viability (Apatinib + Vorinostat; first compound 2.53 µM) | relative viability (Apatinib + Vorinostat; first compound 8 µM) | relative viability (Apatinib + Pictilisib; first compound 0.08 µM) | relative viability (Apatinib + Pictilisib; first compound 0.253 µM) | relative viability (Apatinib + Pictilisib; first compound 0.8 µM) | relative viability (Apatinib + Pictilisib; first compound 2.53 µM) | relative viability (Apatinib + Pictilisib; first compound 8 µM) | relative viability (Metformin + Olaparib; first compound 10 µM) | relative viability (Metformin + Olaparib; first compound 31.62 µM) | relative viability (Metformin + Olaparib; first compound 100 µM) | relative viability (Metformin + Olaparib; first compound 316.23 µM) | relative viability (Metformin + Olaparib; first compound 1000 µM) |
| --- | --- | --- | --- | --- | --- | --- | --- | --- | --- | --- | --- | --- | --- | --- | --- | --- | --- | --- | --- | --- |
| H3255 | 0.55 | 0.556 | 0.567 | 0.5 | 0.564 | 0.768 | 0.737 | 0.764 | 0.74 | 0.794 | 0.448 | 0.454 | 0.388 | 0.436 | 0.447 | 0.487 | 0.594 | 0.523 | 0.441 | 0.402 |
| LU99A | 0.152 | 0.212 | 0.157 | 0.168 | 0.164 | 0.514 | 0.589 | 0.467 | 0.43 | 0.354 | 0.333 | 0.327 | 0.332 | 0.302 | 0.295 | 0.203 | 0.251 | 0.202 | 0.232 | 0.241 |
| HCC-44 |  | 0.593 | 0.593 | 0.531 | 0.603 | 1.07 | 1.07 | 1.08 | 1.01 | 0.934 | 0.639 | 0.686 | 0.584 | 0.548 | 0.659 |  | 0.893 | 0.822 | 0.947 | 0.929 |
| EPLC-272H | 0.467 | 0.345 | 0.429 | 0.394 | 0.39 | 0.532 | 0.372 | 0.396 | 0.346 | 0.256 | 0.351 | 0.331 | 0.357 | 0.324 | 0.349 | 0.748 | 0.769 | 1.01 | 0.922 | 0.877 |
| EMC-BAC-2 | 0.429 | 0.488 | 0.452 | 0.492 | 0.48 |  | 0.51 | 0.432 | 0.29 | 0.362 | 0.561 | 0.593 | 0.572 | 0.516 | 0.527 | 0.381 | 0.394 | 0.401 | 0.339 | 0.361 |
| NCI-H1395 | 1.05 | 1.1 | 0.998 | 0.624 | 0.488 | 0.772 | 0.815 | 0.64 | 0.535 | 0.605 | 0.594 | 0.552 | 0.64 | 0.524 | 0.555 | 0.386 | 0.428 | 0.455 | 0.42 | 0.417 |
| NCI-H1355 | 0.942 | 1.02 | 1.02 | 1 | 0.94 | 0.677 | 0.703 | 0.616 | 0.515 | 0.569 | 0.499 | 0.42 | 0.428 | 0.382 | 0.364 | 0.696 | 0.715 | 0.713 | 0.679 | 0.757 |
| RERF-LC-KJ | 0.491 | 0.447 | 0.504 | 0.426 | 0.455 | 0.625 | 0.72 | 0.63 | 0.695 | 0.577 | 0.591 | 0.701 | 0.438 | 0.469 | 0.462 | 0.651 | 0.715 | 0.757 | 0.625 | 0.63 |
| NCI-H661 | 0.9 | 0.934 | 0.877 | 0.858 | 0.879 | 0.814 | 0.75 | 0.739 | 0.722 | 0.716 | 0.273 | 0.393 | 0.461 | 0.381 | 0.367 | 0.648 | 0.718 | 0.715 | 0.694 | 0.711 |
| SK-LU-1 | 0.853 | 0.956 | 0.97 | 0.892 | 0.905 | 0.905 | 0.778 | 0.776 | 0.722 | 0.554 | 0.786 | 0.637 | 0.564 | 0.557 | 0.453 | 0.356 | 0.375 | 0.502 | 0.389 | 0.398 |
| HARA | 0.323 | 0.28 | 0.327 | 0.301 | 0.28 | 0.599 | 0.556 | 0.523 |  | 0.51 | 0.447 | 0.491 | 0.494 | 0.435 | 0.307 | 0.989 | 0.81 | 0.701 | 0.762 | 1.01 |
| HCC-366 | 0.13 | 0.21 | 0.139 | 0.162 | 0.158 | 0.437 | 0.386 | 0.329 | 0.205 | 0.193 | 0.22 | 0.184 | 0.183 | 0.129 | 0.111 | 0.255 | 0.21 | 0.213 | 0.203 | 0.213 |
| HCC-827 | 0.236 | 0.282 | 0.265 | 0.263 | 0.263 | 0.859 | 0.777 | 0.817 | 0.654 | 0.855 | 1.04 | 0.867 | 0.806 | 0.777 | 1.01 | 0.487 | 0.366 | 0.484 | 0.415 | 0.424 |
